The text below walks through data of ChEMBL document CHEMBL2069165, “Synthesis and evaluation of substituted hexahydronaphthalenes as novel inhibitors of the Mcl-1/BimBH3 interaction” (Bioorg Med Chem Lett, 2012).

pIC50: −log10 of the molar value.

The target of data set [1] is T1, Induced myeloid leukemia cell differentiation protein Mcl-1/Bcl-2-like protein 11 (Homo sapiens) (UniProt Q07820+O43521). Briefly: Inhibition of GST-Mcl-1/BH3 domain of Bim interaction at 25 uM after 1 hr by ELISA. It counts as protein assay.
T1 sequence (O43521 whole entry, looked up, the tested form may be a part): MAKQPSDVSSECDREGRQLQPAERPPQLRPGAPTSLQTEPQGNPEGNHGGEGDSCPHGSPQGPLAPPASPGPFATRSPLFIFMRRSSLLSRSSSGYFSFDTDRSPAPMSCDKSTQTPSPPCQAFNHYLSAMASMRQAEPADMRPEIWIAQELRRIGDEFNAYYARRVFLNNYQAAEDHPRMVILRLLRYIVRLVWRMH
T1 sequence (Q07820 whole entry, looked up, the tested form may be a part): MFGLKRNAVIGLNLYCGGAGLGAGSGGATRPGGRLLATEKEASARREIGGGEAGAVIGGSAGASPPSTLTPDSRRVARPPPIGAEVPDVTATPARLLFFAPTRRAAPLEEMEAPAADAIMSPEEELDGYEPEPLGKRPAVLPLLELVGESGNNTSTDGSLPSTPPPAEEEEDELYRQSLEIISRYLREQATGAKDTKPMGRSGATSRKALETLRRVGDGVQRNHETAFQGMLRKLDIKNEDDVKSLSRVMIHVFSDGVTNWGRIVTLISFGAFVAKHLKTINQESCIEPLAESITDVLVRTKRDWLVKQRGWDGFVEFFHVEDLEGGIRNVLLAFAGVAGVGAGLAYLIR
Data set [2] deals with Induced myeloid leukemia cell differentiation protein Mcl-1/Bcl-2-like protein 11 (Homo sapiens, UniProt Q07820). Description: Inhibition of GST-Mcl-1/BH3 domain of Bim interaction after 1 hr by ELISA. It counts as protein assay. On the technique in general: An ELISA detects its analyte on a solid surface through an enzyme-linked reagent.
Induced myeloid leukemia cell differentiation protein Mcl-1/Bcl-2-like protein 11, sequence (Q07820 whole entry, the tested form may be a part): as the sequence (Q07820 whole entry, looked up, the tested form may be a part) above
Induced myeloid leukemia cell differentiation protein Mcl-1/Bcl-2-like protein 11, sequence (O43521 whole entry, further chain, the tested form may be a part): as the sequence (O43521 whole entry, looked up, the tested form may be a part) above
Data set [3] addresses T1, Induced myeloid leukemia cell differentiation protein Mcl-1/Bcl-2-like protein 11 (Homo sapiens). Briefly: Inhibition of GST-Mcl-1/BH3 domain of Bim interaction in human MDA-MB-468 cells at 25 uM after 24 hrs by Western blotting relative to control. Type of data set: cell-based. (A western blot detects proteins with antibodies after separation by electrophoresis.)
Data set [4] has the same target. Description: Inhibition of GST-Mcl-1/BH3 domain of Bim interaction in human MDA-MB-468 cells at 50 uM after 24 hrs by Western blotting relative to control. Type of data set: cell-based.
A short description of data set [5]: Solubility of the compound in human MDA-MB-468 cell culture medium at >100 uM. Type of data set: physicochemical.
In another data set the test system is MDA-MB-468. Description: Growth inhibition of human MDA-MB-468 cells at 100 uM after 72 to 120 hrs by MTT assay. Type of data set: functional. To be noted: read-out: GI. (In general: Tetrazolium assays rely on reduction of a dye to a coloured formazan, in cell work by metabolically active cells.)

What is called inhibition is the drop in the measured response relative to a control, in per cent. Usually pIC50 stands for −log10 of the IC50, conventionally taken in molar units. The low end stands for a large IC50, the high end for a small IC50. As for `COCOC[C@@]12C=C[C@@H](C(C)(C)C(=O)NCc3ccc(Br)cc3)C[C@@H]1C=C(C)C[C@@H]2OC(=O)NC1CCCCC1` (relative stereo), in data set [1], the inhibition was determined as 64.4%. The molecule further had a pIC50 in data set [2] of 4.77. Regarding `C=C(C)CNC(=O)C(C)(C)[C@@H]1C=C[C@@]2(COCOC)[C@@H](OC(=O)NC3CCCCC3)CC(C)=C[C@H]2C1` (relative stereo), in data set [1], the inhibition is 53.8%.

Turning to `COCOC[C@@]12C=C[C@@H](C(C)(C)C(=O)O)C[C@@H]1C=C(C)C[C@@H]2O`, in data set [1], the inhibition is 18.2%.

In the case of `C=C(C)CNC(=O)C(C)(C)[C@@H]1C=C[C@@]2(COCOC)[C@@H](OC(=O)NC3CCCC3)CC(C)=C[C@H]2C1` (relative stereo), the inhibition in data set [1] turned out to be 19.7%. As for `COCOC[C@@]12C=C[C@@H](C(C)(C)C(=O)NCc3ccccc3)C[C@@H]1C=C(C)C[C@@H]2OC(=O)NC1CCCCC1` (relative stereo), the inhibition in data set [1] amounted to 53.9%. Still for that read-out and setting: under `COC(=O)C(C)(C)[C@@H]1C=C[C@@]2(CO)[C@@H](O)CC(C)=C[C@H]2C1` stands 25%. As for `CC(C)Cc1cc(-c2ccc(-c3ccc(CCC(=O)O)cc3CC(C)C)cc2Cc2ccccc2)ccc1OCC(=O)O`, the inhibition in data set [3] is 61.9%; in data set [4], 55.7%. With `C=C(C)CNC(=O)C(C)(C)[C@@H]1C=C[C@@]2(COCOC)[C@@H](OC(=O)NCc3ccccc3)CC(C)=C[C@H]2C1` (relative stereo), the inhibition in data set [1] is 40.3%. Still for that read-out and setting: as for `COCOC[C@@]12C=C[C@@H](C(C)(C)C(=O)OC)C[C@@H]1C=C(C)C[C@@H]2OC(=O)NC1CCCCC1`, the figure is 34.8%.

For the molecule `C=C(C)CNC(=O)C(C)(C)C1C=CC2(COCOC)C(C=C(C)CC2OC(=O)Nc2cccc(Cl)c2)C1` (racemic), the solubility entry in data set [5] is “Insoluble”. In addition, the values for the inhibition in data set [1], in data set [3] and in data set [4] were 74.3%, 70.6% and 46.4%, respectively. Also, the pIC50 in data set [2] was 5.08. The inhibition of growth at 100 µM in the data set on MDA-MB-468 was determined as 80%. Consider `C=C(C)CNC(=O)C(C)(C)[C@@H]1C=C[C@@]2(COCOC)[C@@H](OC(=O)Nc3ccccc3)CC(C)=C[C@H]2C1` (relative stereo), for which the inhibition in data set [1] was determined as 61.8%.

For `COCOC[C@@]12C=C[C@@H](C(C)(C)C(=O)OCc3ccccc3)C[C@@H]1C=C(C)C[C@@H]2OCc1ccccc1`, the inhibition in data set [1] amounted to 64.9%. In data set [2], the pIC50 is 4.88. Take `COCOC[C@@]12C=C[C@@H](C(C)(C)C(=O)N3CCOCC3)C[C@@H]1C=C(C)C[C@@H]2OC(=O)NC1CCCCC1` (relative stereo): the inhibition in data set [1] stood at 26.5%.

Consider `C=C(C)COC(=O)C(C)(C)[C@@H]1C=C[C@@]2(COCOC)[C@@H](OCC(=C)C)CC(C)=C[C@H]2C1`, for which the inhibition in data set [1] was 31.2%. Same read-out and setting: as for `C=C(C)CNC(=O)C(C)(C)[C@@H]1C=C[C@@]2(COCOC)[C@@H](OC(=O)NC(C)C)CC(C)=C[C@H]2C1` (relative stereo), the figure is 31.2%.

Consider `O=C(O)CCc1ccc(-c2ccc(-c3ccc(OCC(=O)O)cc3)cc2)cc1`, for which the results for the inhibition in data set [3] and in data set [4] were 96.9% and 107%, respectively. Consider `C=C(C)CNC(=O)C(C)(C)[C@@H]1C=C[C@@]2(COCOC)[C@@H](O)CC(C)=C[C@H]2C1`, for which the inhibition in data set [1] was 17.1%.
